Laboratory results taken from ChEMBL document CHEMBL3132750, “4-Chlorocolchicine derivatives bearing a thiourea side chain at the C-7 position as potent anticancer agents” (Medchemcomm, 2014).

What was measured:
[1] = Metabolic stability in BALB/c mouse hepatic microsomes assessed per mg of microsomal protein at 1 umol/L preincubated for 5 mins by LC-MS/MS method; assay type: ADME, Liver, Microsome; conditions: 1 µM
HCT-116 [2] = experiment: Cytotoxicity against human HCT116 cells assessed as inhibition of cell proliferation after 96 hrs; assay type: functional, cell-based; conditions: HCT-116, 96 h
A549 = experiment: Cytotoxicity against human A549 cells assessed as inhibition of cell proliferation after 96 hrs; assay type: functional, cell-based; conditions: A549, 96 h
HT-29 = experiment: Cytotoxicity against human HT-29 cells assessed as inhibition of cell proliferation after 96 hrs; assay type: functional, cell-based; conditions: HT-29, 96 h
HCT-116 [3] = experiment: Antitumor activity against human HCT116 cells xenografted in BALB/C nude mouse assessed as tumor growth inhibition rate at 25 mg/kg, iv administered three times on days 1, 5, and 9; assay type: functional; conditions: read-out: TGI
Mus musculus [4] = experiment: Toxicity in human HCT116 cells xenografted in BALB/C nude mouse assessed as mouse mortality at 50 mg/kg, iv administered three times on days 1, 5, and 9; assay type: organism-based, HCT-116; parameters: dose 50 mg/kg, route intravenous; conditions: in vivo
Mus musculus [5] = experiment: Toxicity in human HCT116 cells xenografted in BALB/C nude mouse assessed as mouse mortality at 25 mg/kg, iv administered three times on days 1, 5, and 9; assay type: organism-based, HCT-116; parameters: dose 25 mg/kg, route intravenous; conditions: in vivo
Mus musculus [6] = experiment: Toxicity in human HCT116 cells xenografted in BALB/C nude mouse assessed as weight loss at 25 mg/kg, iv administered three times on days 1, 5, and 9; assay type: organism-based, HCT-116; parameters: dose 25 mg/kg, route intravenous; conditions: in vivo
HCT-116 [7] = experiment: Antitumor activity against human HCT116 cells xenografted in BALB/C nude mouse assessed as tumor growth inhibition rate at 50 mg/kg, iv administered three times on days 1, 5, and 9; assay type: functional; conditions: read-out: TGI
Mus musculus [8] = experiment: Toxicity in human HCT116 cells xenografted in BALB/C nude mouse assessed as weight loss at 50 mg/kg, iv administered three times on days 1, 5, and 9; assay type: organism-based, HCT-116; parameters: dose 50 mg/kg, route intravenous; conditions: in vivo
Tubulin = Tubulin (Sus scrofa, UniProt P02554+P02550); experiment: Inhibition of tubulin polymerization assessed as reduction in tubulin assembly after 5 mins using pig microtubule protein by spectrophotometry; assay type: protein assay
Mus musculus [9] = experiment: Toxicity in human HCT116 cells xenografted in BALB/C nude mouse assessed as mouse mortality at 10 mg/kg, iv administered three times on days 1, 5, and 9; assay type: organism-based, HCT-116; parameters: dose 10 mg/kg, route intravenous; conditions: in vivo
Mus musculus [10] = experiment: Toxicity in human HCT116 cells xenografted in BALB/C nude mouse assessed as mouse mortality at 20 mg/kg, iv administered three times on days 1, 5, and 9; assay type: organism-based, HCT-116; parameters: dose 20 mg/kg, route intravenous; conditions: in vivo
Mus musculus [11] = experiment: Toxicity in human HCT116 cells xenografted in BALB/C nude mouse assessed as weight loss at 10 mg/kg, iv administered three times on days 1, 5, and 9; assay type: organism-based, HCT-116; parameters: dose 10 mg/kg, route intravenous; conditions: in vivo
HCT-116 [12] = experiment: Antitumor activity against human HCT116 cells xenografted in BALB/C nude mouse assessed as tumor growth inhibition rate at 20 mg/kg, iv administered three times on days 1, 5, and 9; assay type: functional; conditions: read-out: TGI
HCT-116 [13] = experiment: Antitumor activity against human HCT116 cells xenografted in BALB/C nude mouse assessed as tumor growth inhibition rate at 10 mg/kg, iv administered three times on days 1, 5, and 9; assay type: functional; conditions: read-out: TGI
Mus musculus [14] = experiment: Toxicity in human HCT116 cells xenografted in BALB/C nude mouse assessed as weight loss at 20 mg/kg, iv administered three times on days 1, 5, and 9; assay type: organism-based, HCT-116; parameters: dose 20 mg/kg, route intravenous; conditions: in vivo
HCT-116 [15] = experiment: Antitumor activity against human HCT116 cells xenografted in BALB/C nude mouse assessed as tumor growth inhibition rate at 40 mg/kg, iv administered three times on days 1, 5, and 9; assay type: functional; conditions: read-out: TGI
Mus musculus [16] = experiment: Toxicity in human HCT116 cells xenografted in BALB/C nude mouse assessed as mouse mortality at 40 mg/kg, iv administered three times on days 1, 5, and 9; assay type: organism-based, HCT-116; parameters: dose 40 mg/kg, route intravenous; conditions: in vivo
Mus musculus [17] = experiment: Toxicity in human HCT116 cells xenografted in BALB/C nude mouse assessed as weight loss at 40 mg/kg, iv administered three times on days 1, 5, and 9; assay type: organism-based, HCT-116; parameters: dose 40 mg/kg, route intravenous; conditions: in vivo

| Intrinsic clearance [1] | SMILES | IC50 (HCT-116 [2]) | IC50 (A549) | IC50 (HT-29) | other results |
| --- | --- | --- | --- | --- | --- |
| 88 µL/min/mg | COc1c(Cl)c2c(c(OC)c1OC)-c1ccc(OC)c(=O)cc1[C@@H](NC(=S)Nc1nc[nH]n1)CC2 | 0.3 nM | 0.5 nM | 0.2 nM |  |
| 188 µL/min/mg | COc1c(Cl)c2c(c(OC)c1OC)-c1ccc(OC)c(=O)cc1[C@@H](NC(=S)Nc1cc[nH]n1)CC2 | 0.9 nM | 7.8 nM | 0.3 nM |  |
| 43 µL/min/mg | COc1c(Cl)c2c(c(OC)c1OC)-c1ccc(OC)c(=O)cc1[C@@H](NC(=O)N1CCCCC1)CC2 | 42.4 nM | 26.6 nM | 42.6 nM |  |
| 21 µL/min/mg | CCN(CC)C(=O)N[C@H]1CCc2c(Cl)c(OC)c(OC)c(OC)c2-c2ccc(OC)c(=O)cc21 | 44.3 nM | 48.3 nM | 43.9 nM |  |
|  | COc1c(Cl)c2c(c(OC)c1OC)-c1ccc(OC)c(=O)cc1[C@@H](NC(=S)Nc1ncnn1C)CC2 | 33.9 nM | 40.3 nM | 18 nM |  |
|  | COc1c(Cl)c2c(c(OC)c1OC)-c1ccc(OC)c(=O)cc1[C@@H](NC(=S)Nc1cccc(N(C)C)c1)CC2 | 24.2 nM | 38.4 nM | 4.4 nM |  |
|  | COc1ccccc1NC(=S)N[C@H]1CCc2c(Cl)c(OC)c(OC)c(OC)c2-c2ccc(OC)c(=O)cc21 | 29.4 nM | 77.6 nM | 15 nM |  |
|  | COc1c(OC)c2c(c(C(F)(F)F)c1OC)CC[C@H](NC(C)=O)c1cc(=O)c(OC)ccc1-2 | 37.9 nM | 55.2 nM | 35 nM |  |
|  | CCCCNC(=S)N[C@H]1CCc2c(Cl)c(OC)c(OC)c(OC)c2-c2ccc(OC)c(=O)cc21 | 1.8 nM | 7.4 nM | 1 nM |  |
|  | COc1c(Cl)c2c(c(OC)c1OC)-c1ccc(OC)c(=O)cc1[C@@H](NC(=S)Nc1ccncc1)CC2 | 34.1 nM | 247 nM | 23.5 nM |  |
|  | COc1ccc(NC(=S)N[C@H]2CCc3c(Cl)c(OC)c(OC)c(OC)c3-c3ccc(OC)c(=O)cc32)cc1 | 1.4 nM | 8 nM | 0.3 nM |  |
|  | COc1c(Cl)c2c(c(OC)c1OC)-c1ccc(OC)c(=O)cc1[C@@H](NC(=S)Nc1ccccc1C#N)CC2 | 2200 nM | 3800 nM | 866 nM |  |
|  | COc1c(Cl)c2c(c(OC)c1OC)-c1ccc(OC)c(=O)cc1[C@@H](NC(=S)N(C)C)CC2 | 8.4 nM | 10.7 nM | 8.8 nM |  |
|  | CCCNC(=S)N[C@H]1CCc2c(Cl)c(OC)c(OC)c(OC)c2-c2ccc(OC)c(=O)cc21 | 4.3 nM | 9.9 nM | 1.6 nM |  |
| 4 µL/min/mg | COc1c(Cl)c2c(c(OC)c1OC)-c1ccc(OC)c(=O)cc1[C@@H](NC(=S)Nc1cc(C)[nH]n1)CC2 | 0.3 nM | 2 nM | 0.3 nM | IC50 (Tubulin): 1110 nM |
|  | COc1c(Cl)c2c(c(OC)c1OC)-c1ccc(OC)c(=O)cc1[C@@H](NC(=S)N(C)CCO)CC2 | 32.6 nM | 44.9 nM | 30.4 nM |  |
|  | COc1c(Cl)c2c(c(OC)c1OC)-c1ccc(OC)c(=O)cc1[C@@H](NS(=O)(=O)CC(C)C)CC2 | 33.2 nM | 40.8 nM | 36.4 nM |  |
|  | COc1c(Cl)c2c(c(OC)c1OC)-c1ccc(OC)c(=O)cc1[C@@H](NC(=S)Nc1cccc(C#N)c1)CC2 | 25.3 nM | 126 nM | 6.7 nM |  |
| 5 µL/min/mg | CCS(=O)(=O)N[C@H]1CCc2c(Cl)c(OC)c(OC)c(OC)c2-c2ccc(OC)c(=O)cc21 | 39.9 nM | 48.1 nM | 42.6 nM |  |
|  | COc1c(Cl)c2c(c(OC)c1OC)-c1ccc(OC)c(=O)cc1[C@@H](NS(=O)(=O)c1ccccc1)CC2 | 25.8 nM | 36.8 nM | 8.7 nM |  |
|  | COc1c(Cl)c2c(c(OC)c1OC)-c1ccc(OC)c(=O)cc1[C@@H](NC(=S)Nc1cc(C)on1)CC2 | 7.3 nM | 42.5 nM | 5.6 nM |  |
|  | COc1c(Cl)c2c(c(OC)c1OC)-c1ccc(OC)c(=O)cc1[C@@H](NC(=S)Nc1ccccn1)CC2 | 61.7 nM | 170 nM | 34.6 nM |  |
|  | COc1c(Cl)c2c(c(OC)c1OC)-c1ccc(OC)c(=O)cc1[C@@H](NC(=S)Nc1ncn(C)n1)CC2 | 8.8 nM | 34.8 nM | 6 nM |  |
| 223 µL/min/mg | COc1c(Cl)c2c(c(OC)c1OC)-c1ccc(OC)c(=O)cc1[C@@H](NC(=S)Nc1n[nH]c(C)n1)CC2 | 0.5 nM | 1.7 nM | 0.3 nM |  |
| 37 µL/min/mg | COc1c(Cl)c2c(c(OC)c1OC)-c1ccc(OC)c(=O)cc1[C@@H](NC(=S)Nc1ccn(C)n1)CC2 | 1.3 nM | 5.8 nM | 0.7 nM |  |
|  | COc1c(Cl)c2c(c(OC)c1OC)-c1ccc(OC)c(=O)cc1[C@@H](NC(=S)Nc1ccccc1)CC2 | 1.2 nM | 24.4 nM | 0.4 nM |  |

| SMILES | Intrinsic clearance [1] | IC50 (HCT-116 [2]) | IC50 (A549) | IC50 (HT-29) | other results |
| --- | --- | --- | --- | --- | --- |
| CCN(CC)C(=S)N[C@H]1CCc2c(Cl)c(OC)c(OC)c(OC)c2-c2ccc(OC)c(=O)cc21 | 541 µL/min/mg | 6.9 nM | 10.1 nM | 6.1 nM | inhibition in vivo at 25 mg/kg (HCT-116 [3]): 29.5%; Activity (Mus musculus [4]): Non-toxic; Activity (Mus musculus [5]): Non-toxic; Activity (Mus musculus [6]): Non-toxic; inhibition in vivo at 50 mg/kg (HCT-116 [7]): 54.6%; Activity (Mus musculus [8]): Non-toxic |
| COc1c(Cl)c2c(c(OC)c1OC)-c1ccc(OC)c(=O)cc1[C@@H](NC(C)=O)CC2 | 28 µL/min/mg | 8.1 nM | 9.9 nM | 7.9 nM |  |
| COc1c(Cl)c2c(c(OC)c1OC)-c1ccc(OC)c(=O)cc1[C@@H](NC(=S)N1CCOCC1)CC2 | 61 µL/min/mg | 9.1 nM | 44.9 nM | 7.2 nM | inhibition in vivo at 25 mg/kg (HCT-116 [3]): 31.3%; Activity (Mus musculus [4]): Non-toxic; Activity (Mus musculus [5]): Non-toxic; Activity (Mus musculus [6]): Non-toxic; inhibition in vivo at 50 mg/kg (HCT-116 [7]): 52.7%; Activity (Mus musculus [8]): Non-toxic |
| COc1cc2c(c(OC)c1OC)-c1ccc(OC)c(=O)cc1[C@@H](NC(C)=O)CC2 [COLCHICINE] | 1 µL/min/mg | 10.6 nM |  | 8.2 nM |  |
| COc1c(Cl)c2c(c(OC)c1OC)-c1ccc(OC)c(=O)cc1[C@@H](NC(=S)Nc1ccc(N(C)C)cc1)CC2 | 152 µL/min/mg | 1.1 nM | 1.8 nM | 0.3 nM | Activity (Mus musculus [9]): Non-toxic; Activity (Mus musculus [10]): Non-toxic; Activity (Mus musculus [11]): Non-toxic; inhibition in vivo at 20 mg/kg (HCT-116 [12]): 52.5%; inhibition in vivo at 10 mg/kg (HCT-116 [13]): 32.6%; Activity (Mus musculus [14]): Non-toxic |
| CCNC(=S)N[C@H]1CCc2c(Cl)c(OC)c(OC)c(OC)c2-c2ccc(OC)c(=O)cc21 | 124 µL/min/mg | 7.9 nM | 37.9 nM | 8.6 nM | IC50 (Tubulin): 2360 nM; inhibition in vivo at 40 mg/kg (HCT-116 [15]): 62.6%; Activity (Mus musculus [16]): Non-toxic; Activity (Mus musculus [10]): Non-toxic; inhibition in vivo at 20 mg/kg (HCT-116 [12]): 44.4%; Activity (Mus musculus [14]): Non-toxic; Activity (Mus musculus [17]): Non-toxic |
